# Data: ChEMBL document CHEMBL1201862, “PubChem BioAssay data set” (2004)
# Calls of active or inactive are those of the source.
# What was measured:
# [1] = Luminescence Cell-Based Dose Retest to Confirm Inhibitors of Cancer Stem Cells. [Related pubchem assays (depositor defined):AID2717, AID2721]; type: functional; conditions: Homo sapiens
# [2] = cytotoxicity in HMLE control line with eGFP shRNA, dose response, counter-screen for HMLE_sh_ECad selective toxicity project, cell-based, HMLE_sh_eGFP, luminescence (AID 463074); type: functional, Homo sapiens;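 also: HMLE human mammary epithelial cells expressing control shRNA against eGFP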
# HEK293 [3] = experiment: cells; conditions: Homo sapiens
# HEK293 [4] = experiment: cells; conditions: Homo sapiens; remark: listed apart in the source
# [5] = target: Dual specificity protein phosphatase 3 (Homo sapiens, UniProt P51452); experiment: SAR VHR1 Fluorescent Assay for In Vitro dose response studies Set 3. [Related pubchem assays (depositor defined):AID1654, AID1661, AID1878]; type: functional
# Dual specificity protein phosphatase 3, sequence (P51452 whole entry): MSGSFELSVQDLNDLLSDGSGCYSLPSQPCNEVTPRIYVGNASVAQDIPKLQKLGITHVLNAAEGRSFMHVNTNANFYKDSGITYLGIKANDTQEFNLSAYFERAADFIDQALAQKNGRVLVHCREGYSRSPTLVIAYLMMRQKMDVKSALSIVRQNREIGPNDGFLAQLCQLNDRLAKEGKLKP
# Jurkat = experiment: SAR Analysis of small molecule inhibitors of […] specific antigen receptor-induced NF-kB activation in a Jurkat cell line using a luminescence assay - Set 3. [Related pubchem assays (depositor defined):AID435022, AID435025, AID465]; type: functional, cell-based; conditions: Homo sapiens
# HEK293 [6] = experiment: SAR Analysis of small molecule inhibitors of B-cell specific antigen receptor-induced NF-kB activation in a HEK-293T cell line using a luminescence assay - Set 2. [Related pubchem assays (depositor defined):AID435022, AID435025, AID489021]; type: functional, cell-based; conditions: Homo sapiens
# HEK293 [7] = experiment: cytotoxicity in HEK293T NF-kB-Luc cells, SAR follow-up, cytotoxicity control for NF-kB activator project, cell-based, resazurin fluorescence (AID 493251); type: functional; conditions: Homo sapiens
# Beta Lactamase [8] = target: T1, Beta Lactamase (Pseudomonas aeruginosa, UniProt Q932Y6);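 also: confirmatory high-throughput screen measuring VIM-2 metallo-beta-lactamase inhibition by epi-absorbance in dose response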
# T1 sequence (Q932Y6 whole entry): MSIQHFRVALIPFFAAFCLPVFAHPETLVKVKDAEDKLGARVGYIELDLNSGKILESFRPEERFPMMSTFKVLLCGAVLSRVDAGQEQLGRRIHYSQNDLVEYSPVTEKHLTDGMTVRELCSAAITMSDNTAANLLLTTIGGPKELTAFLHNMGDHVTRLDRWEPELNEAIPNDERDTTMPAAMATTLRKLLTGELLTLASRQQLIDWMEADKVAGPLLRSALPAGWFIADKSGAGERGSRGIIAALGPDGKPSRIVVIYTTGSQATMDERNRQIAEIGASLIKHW
# [9] = test system: Streptococcus sp. 'group A'; experiment: growth inhibition of control SK(-) GAS strain, dose response, counter-screen for streptokinase expression inhibitor project, luminescence, kanamycin, BacTiterGlo, confirmation (AID 1900); type: functional, organism-based
# Streptokinase A = target: T2, Streptokinase A (Streptococcus pyogenes serotype M1, UniProt P10520); experiment: S. pyogenes streptokinase expression inhibitors, potency, dose response, plasminogen activation absorbance, OD405 (AID 1914); type: functional, Streptococcus pyogenes M1 GAS;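 also: secreted streptokinase activity via plasminogen activation per viability signal from cell pellet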
# T2 sequence (P10520 whole entry): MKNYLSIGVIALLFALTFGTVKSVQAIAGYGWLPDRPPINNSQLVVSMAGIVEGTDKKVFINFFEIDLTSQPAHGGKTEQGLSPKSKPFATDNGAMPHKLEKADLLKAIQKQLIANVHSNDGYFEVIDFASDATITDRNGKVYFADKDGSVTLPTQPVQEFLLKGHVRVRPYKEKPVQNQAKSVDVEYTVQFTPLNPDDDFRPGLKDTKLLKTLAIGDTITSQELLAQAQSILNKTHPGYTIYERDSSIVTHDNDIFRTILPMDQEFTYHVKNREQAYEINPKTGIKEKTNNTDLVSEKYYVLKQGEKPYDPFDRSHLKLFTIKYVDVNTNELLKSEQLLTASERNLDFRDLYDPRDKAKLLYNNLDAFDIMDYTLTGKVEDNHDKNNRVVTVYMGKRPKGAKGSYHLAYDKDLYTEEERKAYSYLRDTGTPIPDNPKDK
# Beta-lactamase [10] = target: Beta-lactamase (Pseudomonas aeruginosa, UniProt Q79MP6);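 also: biochemical dose-response test of metallo-beta-lactamase enzyme inhibition, read out by epi-absorbance; purified recombinant IMP-1 metallo-beta-lactamase with nitrocefin as substrate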
# Beta-lactamase (Pseudomonas aeruginosa, UniProt Q79MP6), sequence (Q79MP6 whole entry): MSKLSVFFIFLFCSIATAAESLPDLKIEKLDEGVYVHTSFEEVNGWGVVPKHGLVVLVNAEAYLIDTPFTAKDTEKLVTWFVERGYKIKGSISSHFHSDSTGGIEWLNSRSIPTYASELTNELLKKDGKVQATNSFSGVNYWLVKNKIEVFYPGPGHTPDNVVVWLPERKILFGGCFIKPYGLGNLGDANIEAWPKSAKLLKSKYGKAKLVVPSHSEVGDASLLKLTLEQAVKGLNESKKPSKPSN
# Beta-lactamase [11] = target: Beta-lactamase (Salmonella choleraesuis (strain SC-B67), UniProt Q5J463)
# Beta-lactamase (Salmonella choleraesuis (strain SC-B67), UniProt Q5J463), sequence (Q5J463 whole entry): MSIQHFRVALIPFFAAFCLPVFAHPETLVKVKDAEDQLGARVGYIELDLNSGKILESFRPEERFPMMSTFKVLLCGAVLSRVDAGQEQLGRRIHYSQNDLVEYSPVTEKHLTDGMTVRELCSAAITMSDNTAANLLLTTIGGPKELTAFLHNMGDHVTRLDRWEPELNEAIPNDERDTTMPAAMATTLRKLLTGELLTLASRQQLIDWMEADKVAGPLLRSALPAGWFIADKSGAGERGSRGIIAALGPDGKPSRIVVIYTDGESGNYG
# Streptococcus = experiment: Group A Streptococcus viability loss, dose response, counter-screen for streptokinase expression inhibitor project, luminescence, BacTiterGlo (AID 1915); type: functional, organism-based;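 also: potency for reduction of bacterial viability or growth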
# HeLa = experiment: HeLa cell cytotoxicity, dose response, cytotoxicity control, 24 h, cherry-picked samples (AID 504726); type: functional, cell-based; conditions: Homo sapiens;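 also: potency for cytotoxicity as loss of luminescence signal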
# ORF 73 = ORF 73 (Human herpesvirus 8, UniProt O40947); experiment: inhibitors of C-LANA binding to LBS DNA, dose response, biochemical, fluorescence polarization, cherry-picked samples (AID 504725); design: species or system Human gammaherpesvirus 8;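 also: fluorescence polarization of a labeled DNA duplex reporting LANA DNA binding; potency is for inhibitors that block LANA binding to the DNA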
# ORF 73, sequence (O40947 whole entry): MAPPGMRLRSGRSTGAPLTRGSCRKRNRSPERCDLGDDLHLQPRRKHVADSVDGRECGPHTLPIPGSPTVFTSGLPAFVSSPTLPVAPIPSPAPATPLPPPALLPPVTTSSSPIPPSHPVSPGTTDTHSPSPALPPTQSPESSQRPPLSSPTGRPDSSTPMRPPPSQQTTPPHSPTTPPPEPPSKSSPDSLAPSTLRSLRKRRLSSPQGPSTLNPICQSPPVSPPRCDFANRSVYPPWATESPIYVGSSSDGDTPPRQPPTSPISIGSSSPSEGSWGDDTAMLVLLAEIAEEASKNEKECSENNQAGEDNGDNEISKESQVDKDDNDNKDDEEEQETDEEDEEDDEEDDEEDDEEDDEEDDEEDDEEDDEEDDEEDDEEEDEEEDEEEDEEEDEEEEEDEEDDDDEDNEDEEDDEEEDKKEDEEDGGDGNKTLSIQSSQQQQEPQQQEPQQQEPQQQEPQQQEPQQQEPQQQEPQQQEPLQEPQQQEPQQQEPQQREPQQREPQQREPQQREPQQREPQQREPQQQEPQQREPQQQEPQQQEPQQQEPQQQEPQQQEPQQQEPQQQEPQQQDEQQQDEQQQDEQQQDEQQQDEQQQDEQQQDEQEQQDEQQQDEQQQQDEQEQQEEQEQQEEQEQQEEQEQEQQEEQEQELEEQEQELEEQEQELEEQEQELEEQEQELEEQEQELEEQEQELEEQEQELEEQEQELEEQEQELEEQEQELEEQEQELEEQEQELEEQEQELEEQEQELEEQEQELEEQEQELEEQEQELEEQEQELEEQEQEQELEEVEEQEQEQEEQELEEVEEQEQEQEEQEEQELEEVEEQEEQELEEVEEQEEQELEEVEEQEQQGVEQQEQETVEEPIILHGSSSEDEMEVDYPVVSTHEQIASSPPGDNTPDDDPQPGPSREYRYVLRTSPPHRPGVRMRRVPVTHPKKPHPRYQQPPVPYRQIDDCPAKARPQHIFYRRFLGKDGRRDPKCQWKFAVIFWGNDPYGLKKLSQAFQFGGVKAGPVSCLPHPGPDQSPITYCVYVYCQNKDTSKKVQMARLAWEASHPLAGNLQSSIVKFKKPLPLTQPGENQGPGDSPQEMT
# [12] = target: T3, Heat shock factor protein 1 (Mus musculus, UniProt P38532); experiment: HSF1 potentiators in luciferase reporter cells, confirmation, cell-based, NIH3T3, luminescence, dose retest (AID 435004); type: functional;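 also: stress induced by proteasome inhibitor MG132 added 30 min after compound; luciferase reporter driven by HSF1 response element in NIH3T3 cells; actives raise luminescence as potentiators of the MG132 stress response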
# T3 sequence (P38532 whole entry): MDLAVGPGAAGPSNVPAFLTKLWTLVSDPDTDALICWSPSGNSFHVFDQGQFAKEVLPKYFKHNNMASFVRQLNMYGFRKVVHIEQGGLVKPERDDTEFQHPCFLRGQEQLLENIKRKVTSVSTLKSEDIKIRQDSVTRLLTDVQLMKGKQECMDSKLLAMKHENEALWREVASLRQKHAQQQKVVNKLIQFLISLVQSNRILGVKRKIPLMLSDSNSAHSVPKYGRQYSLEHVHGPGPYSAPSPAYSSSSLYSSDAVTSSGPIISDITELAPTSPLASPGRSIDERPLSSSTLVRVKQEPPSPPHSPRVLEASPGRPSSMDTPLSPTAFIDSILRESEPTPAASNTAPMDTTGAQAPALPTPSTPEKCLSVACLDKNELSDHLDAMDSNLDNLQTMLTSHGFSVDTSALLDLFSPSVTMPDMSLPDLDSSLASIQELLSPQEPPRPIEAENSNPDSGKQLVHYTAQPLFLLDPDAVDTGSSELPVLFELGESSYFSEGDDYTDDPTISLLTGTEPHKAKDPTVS
# CHO = experiment: cytotoxicity in TLR9-MyD88 CHO cells, dose response, cytotoxicity control for TLR9-MyD88 binding inhibitor project, cell-based, luminescence (AID 588339); type: functional, hamster; conditions: Cricetulus griseus;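 also: CHO cells stably coexpressing TLR9 and MyD88 fusions from primary screen; compound exposure lasted 48 hours before viability readout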
# [13] = target: UDP-galactopyranose mutase (Mycobacterium tuberculosis, UniProt P9WIQ1); experiment: Inhibitors of Mycobacterium tuberculosis UDP-galactopyranose mutase (UGM) enzyme Measured in Biochemical System Using Plate Reader - 2105-02_Inhibitor_Dose_CherryPick_Activity. [Related pubchem assays (depositor defined):AID504439]
# UDP-galactopyranose mutase, sequence (P9WIQ1 whole entry): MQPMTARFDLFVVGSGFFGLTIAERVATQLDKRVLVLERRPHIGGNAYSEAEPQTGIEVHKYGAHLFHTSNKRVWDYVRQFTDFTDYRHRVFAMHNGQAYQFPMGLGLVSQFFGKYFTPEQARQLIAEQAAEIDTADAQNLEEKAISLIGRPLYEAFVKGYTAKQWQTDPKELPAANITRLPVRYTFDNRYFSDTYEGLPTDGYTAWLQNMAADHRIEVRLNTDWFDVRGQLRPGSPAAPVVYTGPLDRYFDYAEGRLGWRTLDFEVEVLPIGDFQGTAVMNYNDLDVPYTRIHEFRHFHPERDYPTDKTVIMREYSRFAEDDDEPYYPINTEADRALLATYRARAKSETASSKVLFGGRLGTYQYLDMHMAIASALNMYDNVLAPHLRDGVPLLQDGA
# Insulin-degrading enzyme [14] = target: T4, Insulin-degrading enzyme (Homo sapiens, UniProt P14735); experiment: activators of recombinant IDE enzyme, dose response, counter-screen for IDE activator project, biochemical, fluorescence polarization (AID 588681)
# T4 sequence (P14735 whole entry): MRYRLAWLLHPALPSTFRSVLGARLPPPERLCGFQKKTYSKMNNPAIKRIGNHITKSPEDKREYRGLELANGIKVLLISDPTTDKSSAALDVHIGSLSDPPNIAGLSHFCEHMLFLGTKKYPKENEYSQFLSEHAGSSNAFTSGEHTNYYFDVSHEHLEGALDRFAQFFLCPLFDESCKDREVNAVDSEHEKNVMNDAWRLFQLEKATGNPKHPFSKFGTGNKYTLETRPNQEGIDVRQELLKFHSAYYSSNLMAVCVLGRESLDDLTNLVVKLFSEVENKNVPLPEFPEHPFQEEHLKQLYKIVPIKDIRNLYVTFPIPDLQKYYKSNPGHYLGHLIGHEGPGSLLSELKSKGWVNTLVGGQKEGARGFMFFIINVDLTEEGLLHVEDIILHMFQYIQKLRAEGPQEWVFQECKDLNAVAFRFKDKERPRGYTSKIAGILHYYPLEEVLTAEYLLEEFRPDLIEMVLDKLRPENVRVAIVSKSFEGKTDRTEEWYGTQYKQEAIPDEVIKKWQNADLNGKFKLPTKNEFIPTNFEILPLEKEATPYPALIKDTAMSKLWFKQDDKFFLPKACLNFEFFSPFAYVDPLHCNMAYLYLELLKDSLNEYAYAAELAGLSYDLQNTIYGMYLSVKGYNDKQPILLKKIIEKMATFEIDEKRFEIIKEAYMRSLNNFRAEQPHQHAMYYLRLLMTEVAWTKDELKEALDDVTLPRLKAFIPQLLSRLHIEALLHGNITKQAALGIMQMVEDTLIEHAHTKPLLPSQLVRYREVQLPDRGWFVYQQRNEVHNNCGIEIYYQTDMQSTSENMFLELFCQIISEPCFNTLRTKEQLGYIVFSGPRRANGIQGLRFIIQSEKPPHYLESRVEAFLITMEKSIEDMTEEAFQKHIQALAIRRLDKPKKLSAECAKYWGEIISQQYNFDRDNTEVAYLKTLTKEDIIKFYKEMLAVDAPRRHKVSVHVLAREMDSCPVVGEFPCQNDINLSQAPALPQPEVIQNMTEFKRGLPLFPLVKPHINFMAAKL
# Keap1/Nrf2 = Keap1/Nrf2 (Homo sapiens, UniProt Q14145); experiment: Keap1-Nrf2 protein-protein interaction inhibitors, dose response, biochemical, fluorescence polarization, cherry-picked samples (AID 588683)
# Keap1/Nrf2, sequence (Q16236 whole entry): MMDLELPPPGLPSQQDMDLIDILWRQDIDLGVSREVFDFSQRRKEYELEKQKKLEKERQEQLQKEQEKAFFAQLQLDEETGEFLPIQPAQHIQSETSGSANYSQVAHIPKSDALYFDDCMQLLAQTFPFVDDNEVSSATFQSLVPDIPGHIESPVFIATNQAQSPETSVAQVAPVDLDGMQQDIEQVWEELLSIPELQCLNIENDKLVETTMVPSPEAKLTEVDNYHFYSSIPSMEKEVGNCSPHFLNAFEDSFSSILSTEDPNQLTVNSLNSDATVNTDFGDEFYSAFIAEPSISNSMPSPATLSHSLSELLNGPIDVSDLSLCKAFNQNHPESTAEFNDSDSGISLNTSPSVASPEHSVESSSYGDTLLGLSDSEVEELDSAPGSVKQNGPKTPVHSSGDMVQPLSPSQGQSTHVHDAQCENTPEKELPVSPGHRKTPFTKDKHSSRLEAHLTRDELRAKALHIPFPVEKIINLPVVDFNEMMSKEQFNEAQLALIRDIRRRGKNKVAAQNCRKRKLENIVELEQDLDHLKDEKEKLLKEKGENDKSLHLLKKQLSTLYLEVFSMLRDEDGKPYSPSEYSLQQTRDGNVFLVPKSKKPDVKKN
# Keap1/Nrf2, sequence (Q14145 whole entry): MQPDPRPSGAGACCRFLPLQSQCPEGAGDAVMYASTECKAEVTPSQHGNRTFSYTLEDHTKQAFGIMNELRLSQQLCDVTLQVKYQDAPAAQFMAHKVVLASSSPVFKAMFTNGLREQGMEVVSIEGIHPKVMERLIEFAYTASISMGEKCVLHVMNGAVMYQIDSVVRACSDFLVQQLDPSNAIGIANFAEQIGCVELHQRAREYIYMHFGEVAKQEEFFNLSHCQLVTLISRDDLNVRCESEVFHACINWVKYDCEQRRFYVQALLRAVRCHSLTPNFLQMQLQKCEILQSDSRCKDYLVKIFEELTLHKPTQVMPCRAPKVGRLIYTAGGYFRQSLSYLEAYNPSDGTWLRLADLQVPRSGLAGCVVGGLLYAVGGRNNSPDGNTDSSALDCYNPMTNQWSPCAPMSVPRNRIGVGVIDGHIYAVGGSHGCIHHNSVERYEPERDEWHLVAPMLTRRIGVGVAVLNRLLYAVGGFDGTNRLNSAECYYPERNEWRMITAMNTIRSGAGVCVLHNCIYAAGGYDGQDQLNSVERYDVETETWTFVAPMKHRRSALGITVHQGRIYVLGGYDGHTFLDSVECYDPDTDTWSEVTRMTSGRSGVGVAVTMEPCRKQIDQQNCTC
# Beta Lactamase [15] = target: T1, Beta Lactamase; experiment: beta-lactamase reporter inhibitor potency, dose response, artefact control for TLR9-MyD88 binding inhibitor project, BLA reporter cells, FRET fluorescence (AID 588341); type: cell-based;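 also: cell based assay in CHO-K1 cells stably expressing beta-lactamase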
# Insulin-degrading enzyme [16] = target: T4, Insulin-degrading enzyme; experiment: activators of endogenous IDE in HEK cells, dose response, cell-based, fluorescence polarization (AID 588439); type: functional
# HEK293 [17] = experiment: HEK cell cytotoxicity by LDH release, dose response, cytotoxicity control for IDE activator project, fluorescence, HEK cells (AID 588440); type: functional, cell-based; conditions: Homo sapiens;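 also: cytotoxicity by LDH release measuring loss of membrane integrity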
# HEK293 [18] = experiment: optical interference in Abeta FP readout, dose response, artefact control for IDE activator project, biochemical, fluorescence polarization (AID 588442); type: functional, cell-based; conditions: Homo sapiens
smiles,measurement,setting,value
O=C(CSc1ccc(F)cc1)N1CCC(c2nc3ccccc3s2)CC1,AC50,[1],40.5 µM (active)
same,AC50,[2],26.9 µM (active)
COc1ccc(N2C(=O)NC(NC(=O)C(C)(C)C)(C(F)(F)F)C2=O)cc1 (stereo not given),EC50,HEK293 [3],> 59.7 µM (inactive)
same,EC50,HEK293 [4],> 59.7 µM (inactive)
Cc1ccc(C(=O)NC(=S)Nc2ccc(Cl)c(-c3nc4ccccc4s3)c2)cc1,IC50,[5],> 66 µM (inactive)
CC(C)(C)c1ccc(-c2noc(CCC(=O)NC3CCCC3)n2)cc1,IC50,Jurkat,0.48 µM (active)
same,IC50,HEK293 [6],0.78 µM (active)
same,IC50,HEK293 [7],> 80 µM (inactive)
CCCC/N=C1\C(=O)N(C)c2cccc3c(O)c4ccccc4c1c23,IC50,Beta Lactamase [8],11.9 µM (inactive)
same,EC50,[9],6.81 µM (active)
same,EC50,Streptokinase A,21.4 µM (active)
same,IC50,Beta-lactamase [10],14.3 µM (inactive)
same,IC50,Beta-lactamase [11],4.28 µM (active)
same,EC50,Streptococcus,35.4 µM (active)
same,AC50,HeLa,> 350 µM (inactive)
same,AC50,ORF 73,4.99 µM (active)
same,EC50,[12],56.5 µM (active)
same,IC50,CHO,20.1 µM (inactive)
same,AC50,[13],1.04 µM (active)
same,EC50,Insulin-degrading enzyme [14],> 54.7 µM (inactive)
same,AC50,Keap1/Nrf2,1.13 µM (active)
same,IC50,Beta Lactamase [15],9.06 µM (active)
same,EC50,Insulin-degrading enzyme [16],> 54.7 µM (inactive)
same,IC50,HEK293 [17],> 89.2 µM (inactive)
same,EC50,HEK293 [18],> 54.7 µM (inactive)
